Patent publication US11033604B2, “Reagents and methods for treating bacterial infection” (priority 2018, dated 2021)
Positions of bridges follow the written chain, without caps; N, C: chain ends. Non-standard residues stand in square brackets, D forms with d. No end group written: not given here.

Key:
[1] = system: S. aureus SH1000 WT biofilms; assay: ThT fluorescence assay of amyloid formation in S. aureus SH1000 WT biofilm cultures; format: cell-based, Staphylococcus aureus; conditions: 24 h, 37° C., peptide 80 μM unless otherwise noted, vs peptide-free control
Experimental: We developed a novel protocol to identify amyloid fibril formation during biofilm development in two S. aureus strains—SH1000 WT, a rsbU^+ laboratory strain^27, and MN8, a clinical strain isolated from the human urogenital tract (Table 1). After 24 hours of batch growth in microtiter plates, biofilms were washed and incubated with Thioflavin T (ThT), and the resulting fluorescence signals served as a proxy for the extent of PSM fibril formation in the EM (FIG. 1A). Next, we utilized this assay to test α-sheet amyloid inhibitor designs and control peptides (sequences provided in Table 2) in batch biofilm cultures. The first inhibitor used is AP90 (Alternating Peptide #90, referred to as α1 previously^25,26). […]
Overnight cultures of S. aureus (see Table 1 for a list of strains used in this study) were spun down and re-suspended in fresh Luria-Bertani (LB) media to an optical density of 0.1 (600 nm). […] The detached biofilm suspensions were transferred to a 96-well black-walled plate (Corning, TC-treated polystyrene) and ThT fluorescence was read at 438/495 nm on a Perkin-Elmer Enspire™ plate reader. Fluorescence measurements were corrected by subtracting the background intensity of identical samples without ThT. […] After 15 minutes of incubation at room temperature, fluorescence ratios of the two dyes were determined using a Perkin-Elmer Enspire™ plate reader.

[2] = system: S. aureus MN8+mCherry biofilms; assay: Fluorescence microscopy of biofilm adhesion to glass; format: cell-based, Staphylococcus aureus; conditions: 80 μM, 24 h, 37° C.
Experimental: FIG. 2. S. aureus biofilm structures become less robust when grown in the presence of designed peptide inhibitors. (A) S. aureus MN8+mCherry™ biofilms were grown on glass substrates for 24 hours and then cells were washed and fixed. Addition of peptide inhibitors (80 μM) reduced adhesion to the slide, causing cells to detach during the wash step. Images are representative of duplicate wells. (B) In S. aureus SH1000 WT biofilms grown in regular LB medium, PSM amyloid fibrils are visible as deposits in spaces between cells (left). Upon addition of the designed peptide AP90 (80 μM), no extracellular fibril deposits were observed (right).
To further investigate the ability of designed peptides to inhibit PSM amyloid formation, fluorescent (mCherry™ ) MN8 biofilms were grown in culture plates with glass bottom wells. After 24 hours at 37° C. the biofilms were gently rinsed with pipetted saline to remove unattached biomass and the remaining attached cells were fixed and imaged. […] These qualitative results are in good agreement with the quantitative results obtained for amyloid inhibition in FIG. 1B. Addition of anti-α-sheet peptides triggered a significant reduction in PSM amyloid formation as measured by ThT fluorescence and also served to weaken the S. aureus biofilms by reducing the PSM amyloid fibril content of the extracellular matrix. […]

S. mutans biofilm = assay: TEM of S. mutans biofilm; format: cell-based, Streptococcus mutans; conditions: 100 μM (FIG. 16)
Experimental: FIG. 16. Synthetic α-sheet peptides as a novel anti-biofilm agent for the dental pathogen, S. mutans. A) ThT fluorescence of S. mutans biofilms decreases upon addition of synthetic α-sheet peptides AP193, AP407, and AP90. […] D) synthetic α-sheet peptides added to S. mutans grown on hydroxyapatite ceramic particles led to significant decreases in ThT fluorescence.
The phenotypic effects of synthetic α-sheet peptides were determined using TEM.

Row | Substance | Reduction of amyloid fibril formation (ThT fluorescence) [1] [%] | Biofilm attachment to glass after rinsing [2] | Fibrillar structures in extracellular material by TEM (S. mutans biofilm)
1 | RGEmNlCwMNEYSGWcMnLkMGR (RGE[dM]N[dL]C[dW]MNEYSGW[dC]M[dN]L[dK]MGR; disulfide 7-16 (inferred)) [AP407, variant of AP90 with a disulfide bond] | 56 | caused nearly all of the biofilm to detach | 
2 | RGEmNlSwMNEYSGWtMnLkMGR (RGEMNLSWMNEYSGWTMNLKMGR; not fully specified (residues 4, 6, 8, 16, 18, 20); printed as RGEmNlSwMNEYSGWtMnLkMGR) [AP90] |  |  | such structures were not observed
